Test results as given in US5137892A, “Quinoline, naphthyridine and pyridobenzoxazine derivatives” (Abbott Laboratories, priority 1990, dated 1992).
In brackets after ≈: the same amount, converted by molar mass.

Key:
Type in all cases: cell-based
[1] = system: Staphylococcus aureus ATCC 6538P; test: In Vitro Antibacterial Activity, agar dilution MIC; settings: S. aureus ATCC 6538P; BHI agar dilution, 20-24 hours; unit assumed
Experimental: (§1) The activity of the compounds of the present invention was tested against a wide variety of bacteria using standard assay procedures. Minimum inhibitory concentrations (MICs) were determined by the agar dilution method, described below, using Brain Heart Infusion agar.
(§2) Twelve petri dishes were prepared, each containing successive aqueous 2-fold dilutions of the test compounds mixed with 10 mL of sterilized Brain Heart Infusion (BHI) agar. Each plate was inoculated with 100-fold (or 10-fold, for slow-growing strains such as Micrococcus and Streptococcus) dilutions of up to 32 different microorganisms using a Steers replicator block calibrated to deliver approximately 10^4 colony forming units (CFUs). The inoculated plates were incubated at about 35°-37° C. for approximately 20-24 hours. In addition, a control plate, using BHI agar containing no test compound, was prepared and incubated at the beginning and at the end of each test. Ciprofloxacin was used as the reference antibiotic.
(§3) The MIC was defined as the lowest concentration of test compound yielding no growth (a slight haze or sparsely isolated colonies at the inoculum spot as compared to the growth control contaning no test compound.

[2] = system: Streptococcus pyogenes 2548 INDUC; test: In Vitro Antibacterial Activity, agar dilution MIC; settings: S. pyogenes 2548 INDUC; BHI agar dilution, 20-24 hours; unit assumed
Experimental: as §1, §2, §3

[3] = system: Streptococcus bovis A5169; test: In Vitro Antibacterial Activity, agar dilution MIC; settings: S. bovis A5169; BHI agar dilution, 20-24 hours; unit assumed
Experimental: as §1, §2, §3

Pseudomonas cepacia 2961 = test: In Vitro Antibacterial Activity, agar dilution MIC; settings: P. cepacia 2961; BHI agar dilution, 20-24 hours; unit assumed
Experimental: as §1, §2, §3

[4] = system: Staphylococcus aureus A-5278; test: In Vitro Antibacterial Activity, agar dilution MIC; settings: S. aureus A-5278; BHI agar dilution, 20-24 hours; unit assumed
Experimental: as §1, §2, §3

Escherichia coli KNK 437 = test: In Vitro Antibacterial Activity, agar dilution MIC; settings: E. coli KNK 437; BHI agar dilution, 20-24 hours; unit assumed
Experimental: as §1, §2, §3

[5] = system: Klebsiella pneumoniae ATCC 8045; test: In Vitro Antibacterial Activity, agar dilution MIC; settings: K. pneumoniae ATCC 8045; BHI agar dilution, 20-24 hours; unit assumed
Experimental: as §1, §2, §3

[6] = system: Providencia stuartii CMX 640; test: In Vitro Antibacterial Activity, agar dilution MIC; settings: P. stuartii CMX 640; BHI agar dilution, 20-24 hours; unit assumed
Experimental: as §1, §2, §3

[7] = system: Enterococcus faecium ATCC 8043; test: In Vitro Antibacterial Activity, agar dilution MIC; settings: E. faecium ATCC 8043; BHI agar dilution, 20-24 hours; unit assumed
Experimental: as §1, §2, §3

[8] = system: Staphylococcus aureus A5177; test: In Vitro Antibacterial Activity, agar dilution MIC; settings: S. aureus A5177; BHI agar dilution, 20-24 hours; unit assumed
Experimental: as §1, §2, §3

Escherichia coli DC-2 = test: In Vitro Antibacterial Activity, agar dilution MIC; settings: E. coli DC-2; BHI agar dilution, 20-24 hours; unit assumed
Experimental: as §1, §2, §3

Escherichia coli JUHL = test: In Vitro Antibacterial Activity, agar dilution MIC; settings: E. coli JUHL; BHI agar dilution, 20-24 hours; unit assumed
Experimental: as §1, §2, §3

[9] = system: Micrococcus luteus ATCC 4698; test: In Vitro Antibacterial Activity, agar dilution MIC; settings: M. luteus ATCC 4698; BHI agar dilution, 20-24 hours; unit assumed
Experimental: as §1, §2, §3

[10] = system: Pseudomonas aeruginosa BMH10; test: In Vitro Antibacterial Activity, agar dilution MIC; settings: P. aeruginosa BMH10; BHI agar dilution, 20-24 hours; unit assumed
Experimental: as §1, §2, §3

[11] = system: Streptococcus agalactaciae CMX 508; test: In Vitro Antibacterial Activity, agar dilution MIC; settings: S. agalactaciae CMX 508; BHI agar dilution, 20-24 hours; unit assumed
Experimental: as §1, §2, §3

[12] = system: Streptococcus pyogenes 930 CONST; test: In Vitro Antibacterial Activity, agar dilution MIC; settings: S. pyogenes 930 CONST; BHI agar dilution, 20-24 hours; unit assumed
Experimental: as §1, §2, §3

[13] = system: Streptococcus pyogenes EES61; test: In Vitro Antibacterial Activity, agar dilution MIC; settings: S. pyogenes EES61; BHI agar dilution, 20-24 hours; unit assumed
Experimental: as §1, §2, §3

[14] = system: Staphylococcus aureus 1775; test: In Vitro Antibacterial Activity, agar dilution MIC; settings: S. aureus 1775; BHI agar dilution, 20-24 hours; unit assumed
Experimental: as §1, §2, §3

[15] = system: Staphylococcus aureus NCTC 10649; test: In Vitro Antibacterial Activity, agar dilution MIC; settings: S. aureus NCTC 10649; BHI agar dilution, 20-24 hours; unit assumed
Experimental: as §1, §2, §3

[16] = system: Pseudomonas aeruginosa A5007; test: In Vitro Antibacterial Activity, agar dilution MIC; settings: P. aeruginosa A5007; BHI agar dilution, 20-24 hours; unit assumed
Experimental: as §1, §2, §3

[17] = system: Pseudomonas aeruginosa K799/WT; test: In Vitro Antibacterial Activity, agar dilution MIC; settings: P. aeruginosa K799/WT; BHI agar dilution, 20-24 hours; unit assumed
Experimental: as §1, §2, §3

[18] = system: Staphylococcus aureus 642A; test: In Vitro Antibacterial Activity, agar dilution MIC; settings: S. aureus 642A; BHI agar dilution, 20-24 hours; unit assumed
Experimental: as §1, §2, §3

Escherichia coli SS = test: In Vitro Antibacterial Activity, agar dilution MIC; settings: E. coli SS; BHI agar dilution, 20-24 hours; unit assumed
Experimental: as §1, §2, §3

[19] = system: Enterobacter aerogenes ATCC 13048; test: In Vitro Antibacterial Activity, agar dilution MIC; settings: E. aerogenes ATCC 13048; BHI agar dilution, 20-24 hours; unit assumed
Experimental: as §1, §2, §3

[20] = system: Micrococcus luteus ATCC 9341; test: In Vitro Antibacterial Activity, agar dilution MIC; settings: M. luteus ATCC 9341; BHI agar dilution, 20-24 hours; unit assumed
Experimental: as §1, §2, §3

[21] = system: Staphylococcus aureus CMX 553; test: In Vitro Antibacterial Activity, agar dilution MIC; settings: S. aureus CMX 553; BHI agar dilution, 20-24 hours; unit assumed
Experimental: as §1, §2, §3

Escherichia coli H560 = test: In Vitro Antibacterial Activity, agar dilution MIC; settings: E. coli H560; BHI agar dilution, 20-24 hours; unit assumed
Experimental: as §1, §2, §3

Acinetobacter SP CMX 699 = test: In Vitro Antibacterial Activity, agar dilution MIC; settings: BHI agar dilution, 20-24 hours, unit assumed
Experimental: as §1, §2, §3

[22] = system: Staphylococcus epidermidis 3519; test: In Vitro Antibacterial Activity, agar dilution MIC; settings: S. epidermidis 3519; BHI agar dilution, 20-24 hours; unit assumed
Experimental: as §1, §2, §3

[23] = system: Pseudomonas aeruginosa K599/61; settings: P. aeruginosa K599/61; BHI agar dilution, 20-24 hours; unit assumed
Experimental: as §1, §2, §3

[24] = system: Pseudomonas aeruginosa 5263; test: In Vitro Antibacterial Activity, agar dilution MIC; settings: P. aeruginosa 5263; BHI agar dilution, 20-24 hours; unit assumed
Experimental: as §1, §2, §3

[25] = system: Pseudomonas aeruginosa 2862; test: In Vitro Antibacterial Activity, agar dilution MIC; settings: P. aeruginosa 2862; BHI agar dilution, 20-24 hours; unit assumed
Experimental: as §1, §2, §3

Question: What does the source list for `NC1CN(c2c(F)cc3c(=O)c(C(=O)O)cn(C4CC4)c3c2F)CC12OCCO2` (centres unmarked) [Example 274, 1-Cyclopropyl-6,8-difluoro-7-(9-amino-1,4-dioxa-7-azaspiro[4.4]non-7-yl)-1,4-dihydro-4-oxo-3-quinolinecarboxylic acid]?
Answer: MIC values [1]: 0.05 µg/mL (≈ 0.123 µM); MIC values [2]: 0.1 µg/mL (≈ 0.245 µM); MIC values [3]: 0.39 µg/mL (≈ 0.957 µM); MIC values (Pseudomonas cepacia 2961): 6.2 µg/mL (≈ 15.2 µM); MIC values [4]: 0.05 µg/mL (≈ 0.123 µM); MIC values (Escherichia coli KNK 437): 0.78 µg/mL (≈ 1.91 µM); MIC values [5]: 0.05 µg/mL (≈ 0.123 µM); MIC values [6]: 0.78 µg/mL (≈ 1.91 µM); MIC values [7]: 0.39 µg/mL (≈ 0.957 µM); MIC values [8]: 0.1 µg/mL (≈ 0.245 µM); MIC values (Escherichia coli DC-2): 0.78 µg/mL (≈ 1.91 µM); MIC values (Escherichia coli JUHL): 0.05 µg/mL (≈ 0.123 µM); MIC values [9]: 0.39 µg/mL (≈ 0.957 µM); MIC values [10]: 1.56 µg/mL (≈ 3.83 µM); MIC values [11]: 0.2 µg/mL (≈ 0.491 µM); MIC values [12]: 0.2 µg/mL (≈ 0.491 µM); MIC values [13]: 0.2 µg/mL (≈ 0.491 µM); MIC values [14]: 6.2 µg/mL (≈ 15.2 µM); MIC values [15]: 0.05 µg/mL (≈ 0.123 µM); MIC values [16]: 1.56 µg/mL (≈ 3.83 µM); MIC values [17]: 1.56 µg/mL (≈ 3.83 µM); MIC values [18]: 0.1 µg/mL (≈ 0.245 µM); MIC values (Escherichia coli SS): 0.002 µg/mL (≈ 0.00491 µM); MIC values [19]: 0.2 µg/mL (≈ 0.491 µM); MIC values [20]: 0.39 µg/mL (≈ 0.957 µM); MIC values [21]: 0.1 µg/mL (≈ 0.245 µM); MIC values (Escherichia coli H560): 0.2 µg/mL (≈ 0.491 µM); MIC values (Acinetobacter SP CMX 699): 0.2 µg/mL (≈ 0.491 µM); MIC values [22]: 0.1 µg/mL (≈ 0.245 µM); MIC values [23]: 0.1 µg/mL (≈ 0.245 µM)

Question: With `C[C@@H]1COc2c(N3CCC4(CC3)OCCCO4)c(F)cc3c(=O)c(C(=O)O)cn1c23` [Example 330] as the compound, how does the MIC values [1] read?
Answer: 0.1 µg/mL (≈ 0.239 µM)

Question: What about the MIC values [2] of the same compound?
Answer: 0.78 µg/mL (≈ 1.86 µM)

Question: And the MIC values [3]?
Answer: 3.1 µg/mL (≈ 7.41 µM)

Question: And the MIC values (Pseudomonas cepacia 2961)?
Answer: 12.5 µg/mL (≈ 29.9 µM)

Question: And the MIC values [4]?
Answer: 0.1 µg/mL (≈ 0.239 µM)

Question: What about the MIC values (Escherichia coli KNK 437) of the same compound?
Answer: 12.5 µg/mL (≈ 29.9 µM)

Question: What about the MIC values [5] of the same compound?
Answer: 0.78 µg/mL (≈ 1.86 µM)

Question: And the MIC values [6]?
Answer: 50 µg/mL (≈ 119 µM)

Question: And the MIC values [7]?
Answer: 0.78 µg/mL (≈ 1.86 µM)

Question: And the MIC values [8]?
Answer: 0.2 µg/mL (≈ 0.478 µM)

Question: And the MIC values [24]?
Answer: > 100 µg/mL

Question: What about the MIC values (Escherichia coli DC-2) of the same compound?
Answer: 12.5 µg/mL (≈ 29.9 µM)

Question: And the MIC values (Escherichia coli JUHL)?
Answer: 1.56 µg/mL (≈ 3.73 µM)

Question: What about the MIC values [9] of the same compound?
Answer: 0.78 µg/mL (≈ 1.86 µM)

Question: And the MIC values [10]?
Answer: 12.5 µg/mL (≈ 29.9 µM)

Question: What about the MIC values [11] of the same compound?
Answer: 0.78 µg/mL (≈ 1.86 µM)

Question: What about the MIC values [12] of the same compound?
Answer: 1.56 µg/mL (≈ 3.73 µM)

Question: What about the MIC values [13] of the same compound?
Answer: 1.56 µg/mL (≈ 3.73 µM)

Question: What about the MIC values [14] of the same compound?
Answer: 6.2 µg/mL (≈ 14.8 µM)

Question: What about the MIC values [15] of the same compound?
Answer: 0.1 µg/mL (≈ 0.239 µM)

Question: And the MIC values [16]?
Answer: 12.5 µg/mL (≈ 29.9 µM)

Question: And the MIC values [17]?
Answer: 12.5 µg/mL (≈ 29.9 µM)

Question: And the MIC values [18]?
Answer: 0.2 µg/mL (≈ 0.478 µM)

Question: What about the MIC values (Escherichia coli SS) of the same compound?
Answer: 0.01 µg/mL (≈ 0.0239 µM)

Question: What about the MIC values [19] of the same compound?
Answer: 6.2 µg/mL (≈ 14.8 µM)

Question: And the MIC values [20]?
Answer: 1.56 µg/mL (≈ 3.73 µM)

Question: What about the MIC values [25] of the same compound?
Answer: > 100 µg/mL

Question: And the MIC values [21]?
Answer: 0.2 µg/mL (≈ 0.478 µM)

Question: And the MIC values (Escherichia coli H560)?
Answer: 1.56 µg/mL (≈ 3.73 µM)

Question: What about the MIC values (Acinetobacter SP CMX 699) of the same compound?
Answer: 3.1 µg/mL (≈ 7.41 µM)

Question: And the MIC values [22]?
Answer: 0.2 µg/mL (≈ 0.478 µM)

Question: What about the MIC values [23] of the same compound?
Answer: 0.78 µg/mL (≈ 1.86 µM)
